Data from PubChem BioAssay (NCI).
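Method: 48-hour compound exposure of cells in 96-well plates, five concentrations, linear interpolation of endpoints. At the TGI there is no net growth.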

Experiments:
Assay in all cases: DTP human tumour cell line panel, 48 h
M14 melanoma = tested on: M14 melanoma
SK-MEL-5 melanoma = tested on: SK-MEL-5 melanoma
A498 renal = tested on: A498 renal
HOP-62 NSCLC = tested on: HOP-62 NSCLC
MDA-MB-435 = tested on: MDA-MB-435
786-0 renal = tested on: 786-0 renal
KM12 colon = tested on: KM12 colon
T-47D breast = tested on: T-47D breast
EKVX NSCLC = tested on: EKVX NSCLC
SF-539 CNS = tested on: SF-539 CNS
PC-3 prostate = tested on: PC-3 prostate
HCT-15 colon = tested on: HCT-15 colon
OVCAR-8 ovarian = tested on: OVCAR-8 ovarian
SNB-19 CNS = tested on: SNB-19 CNS
SK-MEL-2 melanoma = tested on: SK-MEL-2 melanoma
NCI-H522 lung = tested on: NCI-H522 lung
NCI/ADR-RES ovarian = tested on: NCI/ADR-RES ovarian
HCC-2998 colon = tested on: HCC-2998 colon
K-562 leukemia = tested on: K-562 leukemia
OVCAR-4 ovarian = tested on: OVCAR-4 ovarian
CAKI-1 renal = tested on: CAKI-1 renal
UACC-257 melanoma = tested on: UACC-257 melanoma
HOP-92 NSCLC = tested on: HOP-92 NSCLC
RPMI-8226 leukemia = tested on: RPMI-8226 leukemia
DU-145 prostate = tested on: DU-145 prostate
NCI-H460 lung = tested on: NCI-H460 lung
COLO 205 colon = tested on: COLO 205 colon
HCT-116 colon = tested on: HCT-116 colon
SN12C renal = tested on: SN12C renal
OVCAR-3 ovarian = tested on: OVCAR-3 ovarian
SNB-75 CNS = tested on: SNB-75 CNS
MALME-3M melanoma = tested on: MALME-3M melanoma
MDA-MB-231 breast = tested on: MDA-MB-231 breast
UACC-62 melanoma = tested on: UACC-62 melanoma
SW-620 colon = tested on: SW-620 colon
SF-268 CNS = tested on: SF-268 CNS
ACHN renal = tested on: ACHN renal
SK-MEL-28 melanoma = tested on: SK-MEL-28 melanoma
NCI-H23 lung = tested on: NCI-H23 lung
LOX IMVI melanoma = tested on: LOX IMVI melanoma
BT-549 breast = tested on: BT-549 breast
MDA-N = tested on: MDA-N
SK-OV-3 ovarian = tested on: SK-OV-3 ovarian
CCRF-CEM leukemia = tested on: CCRF-CEM leukemia
RXF 393 renal = tested on: RXF 393 renal
UO-31 renal = tested on: UO-31 renal
A549 NSCLC = tested on: A549 NSCLC
HL-60(TB) leukemia = tested on: HL-60(TB) leukemia
OVCAR-5 ovarian = tested on: OVCAR-5 ovarian
SF-295 CNS = tested on: SF-295 CNS
SR leukemia = tested on: SR leukemia
U251 CNS = tested on: U251 CNS
HS 578T breast = tested on: HS 578T breast
IGROV1 ovarian = tested on: IGROV1 ovarian
MOLT-4 leukemia = tested on: MOLT-4 leukemia
MCF7 breast = tested on: MCF7 breast
HT29 colon = tested on: HT29 colon
NCI-H226 lung = tested on: NCI-H226 lung
TK-10 renal = tested on: TK-10 renal

Measured: TGI

CNC(=S)N/N=C(\C)c1cc(OC)ccc1O
not listed: MCF7 breast | HT29 colon | NCI-H226 lung | TK-10 renal
> 100 µM: all other assays above

CCOc1ccc(NC(=O)C(=O)C2C(=O)Nc3ccccc3S2=O)cc1 (configuration not stated)
not listed: SNB-19 CNS | HCC-2998 colon | K-562 leukemia | DU-145 prostate | COLO 205 colon | SR leukemia | MOLT-4 leukemia
> 100 µM: all other assays above
